Measured values from ChEMBL document CHEMBL5445981, “Affinity On-target Cellular Literature for EUbOPEN Chemogenomic Library” (2024).

Assays:
[1] = biological target: Cyclin-dependent kinase 7 (Homo sapiens, UniProt P50613); experiment: Affinity On-target Cellular interaction: (Radioactive in vitro kinase assays (from cellular wild-type CDK7 immunoprecipitated in HeLa cells)) EUB0001635a CDK7; type: cell-based; design: mode of action Covalent inhibitor, recommended concentration 1 uM
[2] = biological target: Nucleosome-remodeling factor subunit BPTF (Homo sapiens, UniProt Q12830); experiment: Affinity On-target Cellular interaction: (NanoBRET assay (NL-BPTF BD in HEK293 cells)) EUB0000233b BPTF; type: cell-based; design: mode of action Inhibitor, recommended concentration 1 uM
[3] = biological target: Chromatin remodeling regulator CECR2 (Homo sapiens, UniProt Q9BXF3); experiment: Affinity On-target Cellular interaction: (NanoBRET assay (NL-FL […] in HEK293 cells)) EUB0000233b CECR2; type: cell-based; design: mode of action Inhibitor, recommended concentration 1 uM
[4] = biological target: Cyclin-G-associated kinase (Homo sapiens, UniProt O14976); experiment: Affinity On-target Cellular interaction: (NanoBRET assay (HEK293T cells)) EUB0000229b GAK; type: cell-based, HEK-293T; design: mode of action Negative control for SGC-GAK-1, recommended concentration 1 uM
[5] = biological target: Calcium/calmodulin-dependent protein kinase type 1D (Homo sapiens, UniProt Q8IU85); experiment: Affinity On-target Cellular interaction: (NanoBRET assay (in HEK293T cells)) EUB0000878a CAMK1D; type: cell-based, HEK-293T; design: mode of action Inhibitor, recommended concentration 100 nM
[6] = biological target: Dual specificity tyrosine-phosphorylation-regulated kinase 1A (Homo sapiens, UniProt Q13627); experiment: Affinity On-target Cellular interaction: (NanoBRET assay (in HEK293T cells)) EUB0000008b DYRK1A; type: cell-based, HEK-293T; design: mode of action Inhibitor, recommended concentration 1 uM
[7] = biological target: Dual specificity protein kinase CLK4 (Homo sapiens, UniProt Q9HAZ1); experiment: Affinity On-target Cellular interaction: (NanoBRET assay (in HEK293T cells)) EUB0000008b CLK4; type: cell-based, HEK-293T; design: mode of action Inhibitor, recommended concentration 1 uM
[8] = biological target: Dual specificity tyrosine-phosphorylation-regulated kinase 2 (Homo sapiens, UniProt Q92630); experiment: Affinity On-target Cellular interaction: (NanoBRET assay (in HEK293T cells)) EUB0000008b DYRK2; type: cell-based, HEK-293T; design: mode of action Inhibitor, recommended concentration 1 uM
Sequence of Dual specificity tyrosine-phosphorylation-regulated kinase 2 (Q92630 whole entry): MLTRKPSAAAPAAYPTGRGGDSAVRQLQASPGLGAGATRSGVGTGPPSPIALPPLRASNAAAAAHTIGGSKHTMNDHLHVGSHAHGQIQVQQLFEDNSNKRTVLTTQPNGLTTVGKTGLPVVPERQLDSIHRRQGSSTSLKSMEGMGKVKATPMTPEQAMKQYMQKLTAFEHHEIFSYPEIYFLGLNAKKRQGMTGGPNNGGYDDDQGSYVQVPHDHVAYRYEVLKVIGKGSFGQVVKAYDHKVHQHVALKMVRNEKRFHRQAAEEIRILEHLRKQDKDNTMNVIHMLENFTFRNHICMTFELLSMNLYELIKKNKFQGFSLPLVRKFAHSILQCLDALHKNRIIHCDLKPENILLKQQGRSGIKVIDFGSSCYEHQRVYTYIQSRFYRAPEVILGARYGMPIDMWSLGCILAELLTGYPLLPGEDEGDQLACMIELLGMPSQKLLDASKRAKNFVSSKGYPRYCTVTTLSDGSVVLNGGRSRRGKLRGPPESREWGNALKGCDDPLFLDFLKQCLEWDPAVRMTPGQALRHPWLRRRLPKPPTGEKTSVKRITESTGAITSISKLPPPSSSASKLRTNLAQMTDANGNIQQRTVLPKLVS

[9] = biological target: Dual specificity protein kinase CLK1 (Homo sapiens, UniProt P49759); experiment: Affinity On-target Cellular interaction: (NanoBRET assay (HEK293T cells)) EUB0001049a CLK1; type: cell-based, HEK-293T; design: mode of action Negative control for SGC-CLK-1 (UNC-CAF-170 ), recommended concentration 1 uM
[10] = biological target: Dual specificity protein kinase CLK2 (Homo sapiens, UniProt P49760); experiment: Affinity On-target Cellular interaction: (NanoBRET assay (HEK293T cells)) EUB0001049a CLK2; type: cell-based, HEK-293T; design: mode of action Negative control for SGC-CLK-1 (UNC-CAF-170 ), recommended concentration 1 uM
Sequence of Dual specificity protein kinase CLK2 (P49760 whole entry): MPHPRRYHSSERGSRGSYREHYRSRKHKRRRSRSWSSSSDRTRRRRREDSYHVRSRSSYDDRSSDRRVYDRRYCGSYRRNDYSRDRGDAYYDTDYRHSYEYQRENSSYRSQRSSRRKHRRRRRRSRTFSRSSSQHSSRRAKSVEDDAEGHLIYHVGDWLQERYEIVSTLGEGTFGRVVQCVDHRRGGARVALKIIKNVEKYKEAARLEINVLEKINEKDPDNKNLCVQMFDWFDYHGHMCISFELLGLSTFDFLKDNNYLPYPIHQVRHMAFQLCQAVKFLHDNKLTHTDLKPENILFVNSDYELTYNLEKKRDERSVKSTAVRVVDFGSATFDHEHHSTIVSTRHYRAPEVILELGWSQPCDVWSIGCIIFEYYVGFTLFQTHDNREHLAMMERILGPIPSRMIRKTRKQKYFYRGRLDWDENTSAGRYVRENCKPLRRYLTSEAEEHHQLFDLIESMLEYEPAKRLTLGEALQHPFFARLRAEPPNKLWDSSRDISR

[11] = biological target: Histone-arginine methyltransferase CARM1 (Homo sapiens, UniProt Q86X55); experiment: Affinity On-target Cellular interaction: (Western Blot (dimethylation of BAF155, BAF155me2a/BAF155, in HEK293T cells)) EUB0000255b CARM1; type: cell-based, HEK-293T; design: mode of action Negative control for TP-064, recommended concentration 1 uM
SRSF protein kinase 1 = SRSF protein kinase 1 (Homo sapiens, UniProt Q96SB4)
SRSF protein kinase 2 = SRSF protein kinase 2 (Homo sapiens, UniProt P78362)
Sequence of SRSF protein kinase 2 (P78362 whole entry, the tested form may be a part): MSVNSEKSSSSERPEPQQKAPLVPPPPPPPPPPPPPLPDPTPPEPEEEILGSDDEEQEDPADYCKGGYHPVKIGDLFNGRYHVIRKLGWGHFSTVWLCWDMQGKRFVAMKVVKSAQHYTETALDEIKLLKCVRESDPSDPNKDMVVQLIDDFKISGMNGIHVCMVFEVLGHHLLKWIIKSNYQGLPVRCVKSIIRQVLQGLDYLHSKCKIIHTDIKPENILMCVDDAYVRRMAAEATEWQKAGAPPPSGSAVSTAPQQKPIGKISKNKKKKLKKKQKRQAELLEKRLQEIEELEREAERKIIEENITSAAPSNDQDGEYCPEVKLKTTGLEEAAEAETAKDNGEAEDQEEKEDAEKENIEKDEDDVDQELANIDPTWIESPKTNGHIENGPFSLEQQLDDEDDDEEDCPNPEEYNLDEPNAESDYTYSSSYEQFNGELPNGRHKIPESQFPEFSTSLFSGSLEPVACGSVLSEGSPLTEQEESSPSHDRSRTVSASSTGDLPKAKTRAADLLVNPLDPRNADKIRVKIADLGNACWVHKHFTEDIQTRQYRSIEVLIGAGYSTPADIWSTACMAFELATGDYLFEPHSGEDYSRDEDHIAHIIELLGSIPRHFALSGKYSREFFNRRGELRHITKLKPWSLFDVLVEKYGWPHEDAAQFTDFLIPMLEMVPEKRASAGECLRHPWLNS

[12] = biological target: Histone-lysine N-methyltransferase NSD3 (Homo sapiens, UniProt Q9BZ95); experiment: Affinity On-target Cellular interaction: (NanoBRET assay (Nluc-NSD3-PWWP1 fusion protein in U2OS cells)) EUB0000270b NSD3; type: cell-based; design: mode of action Negative control for BI-9321, recommended concentration 1 uM
[13] = biological target: Serine/threonine-protein kinase 17A (Homo sapiens, UniProt Q9UEE5)
[14] = biological target: T1, Casein kinase I isoform delta (Homo sapiens, UniProt P48730); experiment: Affinity On-target Cellular interaction: (NanoBRET asssay (HEK293T cells)) EUB0001201a CSNK1D; type: cell-based, HEK-293T; design: mode of action Negative control for MU1742, recommended concentration 1 uM
T1 sequence (P48730 whole entry, canonical isoform): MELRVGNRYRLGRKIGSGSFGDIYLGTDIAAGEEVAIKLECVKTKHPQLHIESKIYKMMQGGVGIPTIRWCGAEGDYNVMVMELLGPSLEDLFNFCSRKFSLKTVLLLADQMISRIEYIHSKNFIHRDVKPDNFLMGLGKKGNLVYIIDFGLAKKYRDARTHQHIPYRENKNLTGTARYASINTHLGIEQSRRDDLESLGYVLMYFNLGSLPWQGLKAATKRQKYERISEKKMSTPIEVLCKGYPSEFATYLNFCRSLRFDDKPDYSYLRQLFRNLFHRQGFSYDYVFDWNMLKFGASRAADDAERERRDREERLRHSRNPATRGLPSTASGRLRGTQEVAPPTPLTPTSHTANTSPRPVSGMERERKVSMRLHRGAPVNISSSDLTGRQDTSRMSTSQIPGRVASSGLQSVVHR

[15] = biological target: T2, Casein kinase I isoform epsilon (Homo sapiens, UniProt P49674); experiment: Affinity On-target Cellular interaction: (NanoBRET asssay (HEK293T cells)) EUB0001201a CSNK1E; type: cell-based, HEK-293T; design: mode of action Negative control for MU1742, recommended concentration 1 uM
T2 sequence (P49674 whole entry, canonical isoform): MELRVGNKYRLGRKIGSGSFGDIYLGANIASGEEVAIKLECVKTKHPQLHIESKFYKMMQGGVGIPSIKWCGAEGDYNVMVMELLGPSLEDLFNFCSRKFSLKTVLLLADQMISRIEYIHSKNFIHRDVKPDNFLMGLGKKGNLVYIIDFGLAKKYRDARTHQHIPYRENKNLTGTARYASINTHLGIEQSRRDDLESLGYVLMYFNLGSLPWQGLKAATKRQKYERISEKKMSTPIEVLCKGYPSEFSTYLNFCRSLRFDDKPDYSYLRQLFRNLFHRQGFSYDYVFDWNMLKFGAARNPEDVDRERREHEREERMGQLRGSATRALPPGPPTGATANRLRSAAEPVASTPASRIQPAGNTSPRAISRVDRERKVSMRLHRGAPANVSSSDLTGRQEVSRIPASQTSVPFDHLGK

[16] = biological target: Serine/threonine-protein kinase SIK2 (Homo sapiens, UniProt Q9H0K1); experiment: Affinity On-target Cellular interaction: (NanoBRET assay (HEK293T cells)) EUB0001479a SIK2; type: cell-based, HEK-293T; design: mode of action Negative control for MRIA9, recommended concentration 1 uM
Sequence of Serine/threonine-protein kinase SIK2 (Q9H0K1 whole entry): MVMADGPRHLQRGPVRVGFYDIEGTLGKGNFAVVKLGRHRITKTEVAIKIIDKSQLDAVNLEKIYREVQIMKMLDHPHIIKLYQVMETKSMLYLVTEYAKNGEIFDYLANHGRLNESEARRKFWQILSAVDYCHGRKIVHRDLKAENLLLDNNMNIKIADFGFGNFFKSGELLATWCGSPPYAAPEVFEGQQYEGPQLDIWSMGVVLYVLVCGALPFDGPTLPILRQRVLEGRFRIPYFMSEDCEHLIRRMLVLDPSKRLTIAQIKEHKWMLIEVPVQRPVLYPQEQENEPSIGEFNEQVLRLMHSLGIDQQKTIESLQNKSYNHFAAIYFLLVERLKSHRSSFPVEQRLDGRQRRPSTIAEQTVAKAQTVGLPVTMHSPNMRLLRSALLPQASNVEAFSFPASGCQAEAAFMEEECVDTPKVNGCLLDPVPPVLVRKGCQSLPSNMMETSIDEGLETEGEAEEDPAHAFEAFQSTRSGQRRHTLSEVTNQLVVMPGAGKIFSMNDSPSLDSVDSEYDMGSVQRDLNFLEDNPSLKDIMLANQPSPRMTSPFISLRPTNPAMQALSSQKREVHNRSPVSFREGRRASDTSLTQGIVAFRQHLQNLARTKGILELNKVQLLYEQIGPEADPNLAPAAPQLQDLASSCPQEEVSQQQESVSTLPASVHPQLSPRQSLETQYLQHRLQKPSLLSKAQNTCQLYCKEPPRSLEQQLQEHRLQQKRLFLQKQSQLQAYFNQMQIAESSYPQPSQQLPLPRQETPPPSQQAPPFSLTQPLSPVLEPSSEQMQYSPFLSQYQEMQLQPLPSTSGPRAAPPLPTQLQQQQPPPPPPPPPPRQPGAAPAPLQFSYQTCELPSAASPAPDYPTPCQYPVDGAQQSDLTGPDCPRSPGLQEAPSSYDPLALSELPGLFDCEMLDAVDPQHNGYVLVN

[17] = biological target: Serine/threonine-protein kinase SIK1 (Homo sapiens, UniProt P57059); experiment: Affinity On-target Cellular interaction: (NanoBRET assay (HEK293T cells)) EUB0001479a SIK1; type: cell-based, HEK-293T; design: mode of action Negative control for MRIA9, recommended concentration 1 uM
[18] = biological target: Serine/threonine-protein kinase SIK3 (Homo sapiens, UniProt Q9Y2K2); experiment: Affinity On-target Cellular interaction: (NanoBRET assay (HEK293T cells)) EUB0001479a SIK3; type: cell-based, HEK-293T; design: mode of action Negative control for MRIA9, recommended concentration 1 uM
[19] = biological target: Casein kinase I isoform alpha (Homo sapiens, UniProt P48729); experiment: Affinity On-target Cellular interaction: (NanoBRET asssay (HEK293T cells)) EUB0001205a CSNK1A1; type: cell-based, HEK-293T; design: mode of action Inhibitor, recommended concentration 1 uM
[20] = biological target: T1, Casein kinase I isoform delta; experiment: Affinity On-target Cellular interaction: (NanoBRET asssay (HEK293T cells)) EUB0001205a CSNK1D; type: cell-based, HEK-293T; design: mode of action Inhibitor, recommended concentration 1 uM
[21] = biological target: T2, Casein kinase I isoform epsilon; experiment: Affinity On-target Cellular interaction: (NanoBRET asssay (HEK293T cells)) EUB0001205a CSNK1E; type: cell-based, HEK-293T; design: mode of action Inhibitor, recommended concentration 1 uM
[22] = biological target: T3, Inhibitor of nuclear factor kappa-B kinase subunit beta (Homo sapiens, UniProt O14920); experiment: Affinity On-target Cellular interaction: (NanoBRET assay (HEK293T cells)) EUB0001576a IKBKB; type: cell-based, HEK-293T; design: mode of action Negative control for BI 605906, recommended concentration 1 uM
T3 sequence (O14920 whole entry): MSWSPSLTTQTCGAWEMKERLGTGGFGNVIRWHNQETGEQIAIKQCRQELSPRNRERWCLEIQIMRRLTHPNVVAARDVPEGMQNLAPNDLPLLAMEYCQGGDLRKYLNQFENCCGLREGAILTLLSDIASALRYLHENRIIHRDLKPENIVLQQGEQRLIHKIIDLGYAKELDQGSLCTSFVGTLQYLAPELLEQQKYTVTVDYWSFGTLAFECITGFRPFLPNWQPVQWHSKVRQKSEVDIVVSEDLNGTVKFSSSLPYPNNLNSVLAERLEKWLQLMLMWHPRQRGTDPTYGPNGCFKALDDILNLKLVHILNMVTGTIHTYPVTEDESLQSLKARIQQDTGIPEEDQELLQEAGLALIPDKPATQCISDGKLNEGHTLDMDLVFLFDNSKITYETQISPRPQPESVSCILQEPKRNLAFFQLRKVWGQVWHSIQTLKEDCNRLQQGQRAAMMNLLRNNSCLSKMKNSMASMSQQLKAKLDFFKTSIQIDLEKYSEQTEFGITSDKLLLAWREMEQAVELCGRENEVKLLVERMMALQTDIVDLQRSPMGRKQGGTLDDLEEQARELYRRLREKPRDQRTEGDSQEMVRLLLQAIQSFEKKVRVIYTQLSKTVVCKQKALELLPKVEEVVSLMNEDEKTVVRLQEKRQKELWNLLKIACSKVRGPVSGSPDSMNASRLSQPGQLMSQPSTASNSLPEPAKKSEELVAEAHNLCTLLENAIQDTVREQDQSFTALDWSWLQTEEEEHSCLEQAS

[23] = biological target: T3, Inhibitor of nuclear factor kappa-B kinase subunit beta; experiment: Affinity On-target Cellular interaction: (Cellular assay (inhibition of phospho-IKBKB in HeLa cells)) EUB0001492b IKBKB; type: cell-based; design: mode of action Inhibitor, recommended concentration 1 uM
[24] = biological target: Receptor tyrosine-protein kinase erbB-2 (Homo sapiens, UniProt P04626); experiment: Affinity On-target Cellular interaction: (Western Blot (EGF-induced autophosphorylation of the chimera EGFR extracellular domain and erbB2 intracellular domain in NIH 3T3 cells)) EUB0000595a ERBB2; type: cell-based; design: mode of action Inhibitor, recommended concentration 1 uM; details: nih3t3
[25] = biological target: RAC-beta serine/threonine-protein kinase (Homo sapiens, UniProt P31751); experiment: Affinity On-target Cellular interaction: (NanoBRET assay (HEK293T cells)) EUB0001563a AKT2; type: cell-based; design: mode of action Negative control for Borussertib, recommended concentration 1 uM; details: hek-293t
[26] = biological target: RAC-alpha serine/threonine-protein kinase (Homo sapiens, UniProt P31749); experiment: Affinity On-target Cellular interaction: (NanoBRET assay (HEK293T cells)) EUB0001563a AKT1; type: cell-based; design: mode of action Negative control for Borussertib, recommended concentration 1 uM; details: hek-293t
Sequence of RAC-alpha serine/threonine-protein kinase (P31749 whole entry): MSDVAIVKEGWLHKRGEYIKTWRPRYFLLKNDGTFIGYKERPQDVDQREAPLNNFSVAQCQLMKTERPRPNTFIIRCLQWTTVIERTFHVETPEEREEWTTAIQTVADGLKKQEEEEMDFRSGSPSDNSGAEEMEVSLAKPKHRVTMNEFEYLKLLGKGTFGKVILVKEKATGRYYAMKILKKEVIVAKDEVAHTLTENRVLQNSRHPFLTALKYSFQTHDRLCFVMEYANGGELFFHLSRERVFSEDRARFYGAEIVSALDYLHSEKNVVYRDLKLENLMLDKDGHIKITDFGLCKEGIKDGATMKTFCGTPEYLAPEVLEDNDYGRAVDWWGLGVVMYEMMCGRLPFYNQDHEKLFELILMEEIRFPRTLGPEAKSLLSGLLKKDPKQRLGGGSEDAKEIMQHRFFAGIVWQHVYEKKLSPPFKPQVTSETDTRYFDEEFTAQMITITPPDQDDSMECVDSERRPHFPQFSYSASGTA

C=CC(=O)Nc1ccc(C(=O)Nc2n[nH]c3c2CN(C(=O)N[C@H](CN(C)C)c2ccccc2)C3(C)C)cc1
IC50 [1]: 0.0625 µM

CN(C)CCCOc1ccc(-c2cc(NCCCn3cccn3)nc(S(C)(=O)=O)n2)cc1
EC50 [2]: 0.228 µM | EC50 [3]: 0.289 µM

COc1cc(N(C)c2ccnc3ccc(C(F)(F)F)cc23)cc(OC)c1OC
IC50 [4]: > 5 µM

CC(C)c1cc(Nc2nc(N3CCC[C@H](N)C3)ncc2C(N)=O)cc(C(C)C)n1
IC50 [5]: 0.029 µM

Cn1cc(-c2ccc3occ(-c4cccc(-c5ccncc5)c4)c3n2)cn1
Ki [6]: 6.58 µM | Ki [7]: 0.023 µM | Ki [8]: 1.7 µM

COc1cc(Nc2nc(C)cc(-c3cnn4nc(OC)ccc34)n2)cc(C(F)(F)F)c1
IC50 [9]: > 10 µM | IC50 [10]: > 10 µM

COCCN1CCC(c2cc(CN(C)C(=O)c3cccc(Oc4ccccc4)c3)ccn2)CC1
IC50 [11]: > 10 µM

CN(c1ncccc1CNc1ccnc(-c2cc3cc(Cl)ccc3[nH]2)n1)S(C)(=O)=O
IC50 (SRSF protein kinase 1): > 50 µM | IC50 (SRSF protein kinase 2): > 50 µM

Cc1cc(CN)cc(C)c1-c1ncn(C)c1-c1cncn1C
IC50 [12]: > 10 µM

CN1CCN(C(=O)c2ccc3cc2OCCOCCNc2ccn4ncc-3c4n2)CC1
IC50 [13]: > 45 µM

CCc1ccc(-c2ncn(CC3(F)CCN(C)CC3)c2-c2ccnc3[nH]ccc23)nc1
IC50 [14]: > 50 µM | IC50 [15]: > 50 µM

CN(C)c1ncc2cc(-c3ccc(-c4ncccc4F)cc3Cl)c(=O)n(C[C@H]3OC[C@H](N)CO3)c2n1
IC50 [16]: 14 µM | IC50 [17]: 14 µM | IC50 [18]: 14 µM

CN1CCC(F)(Cn2cnc(-c3ccc(F)cn3)c2-c2ccnc3[nH]ccc23)CC1
IC50 [19]: 3.5 µM | IC50 [20]: 0.047 µM | IC50 [21]: 0.22 µM

CN(C)C(=O)c1sc2nc(N3CCC(S(C)(=O)=O)CC3)cc(C(F)(F)F)c2c1N [BI-5026]
IC50 [22]: > 20 µM

CCC(F)(F)c1cc(N2CCC(S(C)(=O)=O)CC2)nc2sc(C(N)=O)c(N)c12 [BI-605906]
EC50 [23]: 0.9 µM

COCC(=O)NC/C=C/c1ccc2ncnc(Nc3ccc(Oc4ccc(C)nc4)c(C)c3)c2c1 [CP-724714]
IC50 [24]: 0.032 µM

C=CC(=O)Nc1ccc2[nH]c(=O)n(C3CCN(Cc4ccc(-c5ccc6c(c5)NC(=O)CO6)cc4)CC3)c2c1 [RL2578]
IC50 [25]: 8.3 µM | IC50 [26]: 1.9 µM
